Experimental data from patent US20260183295A1, “METHODS AND COMPOSITIONS FOR TREATING CANCER” (Onconova Therapeutics, Inc., priority 2022, published 2026).

Legend:
Type in all cases: cell-based
HCC-1937 = experiment: Cell viability after 72 hours treatment; conditions: HCC-1937 (TNBC)
Protocol: (§1) The effects on the different treatment conditions on BUB 1 levels and PARP cleavage were also assessed. For both MNA-MB-231 cells, Compound 1 alone or with HCQ or SBI decreased BUB1 levels and cleaved PARP with […] decreases in cell viability observed for all treatments except Compound 1+SBI in MMA-MB-231 cells. The effects of Compound 1 with or without autophagy inhibitors was less pronounced in HCC-1937 cells.

MDA-MB-468 = experiment: Cell viability after 72 hours treatment; conditions: MDA-MB-468 (TNBC)
Protocol: as §1

MDA-MB-231 cells [1] = experiment: MTT assay, 24 hours; conditions: zVAD-FMK 20 μM (FIG. 25)
Caspase 3/7 [2] = experiment: Caspase 3/7 Glo assay, MDA-MB-231 cells, 24 hours
Protocol: To determine how Compound 1 induces cell death, Caspase 3/7 activity was measured using the Caspase 3/7 Glo assay.
The effect of zVAD-FMK treatment on Caspase 3/7 activity was assessed.

Hs578T spheroids = experiment: CellTiter Glo 3D spheroid viability; conditions: 48 hours; Compound 1, Comparator 1, Comparator 2 5 μM; Comparator 4 10 μM
Protocol: Viability of the spheroids was assessed using CellTiter Glo 3D.

[3] = test system: T-47D, HCC-1937, HS-578T, BT-474, MDA-MB-468, and MD-MB-453 cell lines; experiment: MTT cell viability of breast cancer cell line panel versus comparators, 48 hrs (FIG. 17); conditions: Comparator 4 10 μM, Comparator 1 and 2 5 μM, Compound 1 2.5, 5.0, 10 μM
MDA-MB-231 cells [4] = experiment: Annexin V/PI staining followed by FACS, 24 hours; conditions: for cell death (Annexin V/PI): Compound 1, Comparator 1, 2 5 μM, Comparator 4 10 μM; for effect of zVAD-FMK on cell death, Annexin V/PI staining: zVAD-FMK 20 μM (FIG. 24)
Protocol: To determine the effect of the different treatment conditions on cell death, Annexin V/PI staining was performed.

Caspase 3/7 [5] = experiment: Caspase 3/7 Glo assay with or without bafilomycin A1, MDA-MB-231 cells, 2 days; conditions: 5 μM
Description: FIGS. 34 and 35 show Caspase 3/7 activity as measured by the Caspase 3/7 Glo assay. […] The effect was enhanced by co-treatment with bafilomycin A1 cotreatment.

[6] = Compound 1, Comparator 1, 2 5 μM, Comparator 4 10 μM (FIG. 22)
[7] = without zVAD-FMK, relative to DMSO (FIG. 26)

| Compound | 72 h-cell viability decrease (HCC-1937) | 72 h-cell viability decrease (MDA-MB-468) | effect of zVAD-FMK on cell death, MTT assay (MDA-MB-231 cells [1]) | Caspase 3/7 activity (Caspase 3/7 [2]; [6]) | Caspase 3/7 activity (Caspase 3/7 [2]; [7]) | effect of zVAD-FMK on induced Caspase 3/7 activity (Caspase 3/7 [2]; zVAD-FMK 20 μM (FIG. 26)) | decrease in organoid viability compared to DMSO (Hs578T spheroids) | cell death (MTT), comparison of treatments [3] | cell death (Annexin V/PI) (MDA-MB-231 cells [4]) | effect of zVAD-FMK on cell death, Annexin V/PI staining (MDA-MB-231 cells [4]) | Caspase 3/7 activity, compound alone (Caspase 3/7 [5]) |
| --- | --- | --- | --- | --- | --- | --- | --- | --- | --- | --- | --- |
| CCN1CCN(Cc2ccc(Nc3ncc(F)c(-c4cc(F)c5nc(C)n(C(C)C)c5c4)n3)nc2)CC1 [Comparator 3, abemaciclib] | 10% | 50% | – | – | – | – | – | – | – | – | – |
| CC(C)C[C@H](NC(=O)[C@H](Cc1ccccc1)NC(=O)c1cnccn1)B(O)O [Comparator 4, bortezomib] | – | – | partially blocked | greatest increase | large increase | completely inhibited | significant cell death | induced cell death to the greatest extent | ~55% | partially blocked | – |
| CC(=O)c1c(C)c2cnc(Nc3ccc(N4CCNCC4)cn3)nc2n(C2CCCC2)c1=O [Comparator 1, palbociclib] | 15% | 10% | – | no effect | – | – | no effect | – | – | – | no effect |
| CN(C)C(=O)c1cc2cnc(Nc3ccc(N4CCNCC4)cn3)nc2n1C1CCCC1 [Comparator 2, ribociclib] | – | – | similarly unaffected | no effect | not increased | – | no effect | – | neither Comparator 1 nor Comparator 2 treatment induced cell death | similarly unaffected | – |
